Among the data in patent US20110195041A1, “ANTIMICROBIAL COMPOSITIONS” (NDSU RESEARCH FOUNDATION, priority 2008, published 2011) are MIC values, retold here.

≈ marks a conversion by molar mass, not a printed value.

One test has as its system S. epidermidis. The test can be described thus: Minimum inhibitory concentration (MIC) of triclosan. The class given is cell-based. The conditions noted are these: Staphylococcus epidermidis; tryptic soy broth; range 0.2 to 25 μg/mL; complete growth inhibition. The protocol: (§1) The antimicrobial activity of triclosan toward the microorganisms of interest was determined by measuring the minimum inhibitor concentration (MIC). The protocol for determining the minimum inhibitory concentration (MIC) of antimicrobial agents in solution has been reported previously (described in Stafslien, S., et al., Biofouling, 2007. 23(1/2): 37-44.). Triclosan was serially diluted (2-fold) in marine broth, tryptic soy broth, and Guillard's F/2 medium for the MIC evaluation of C. lytica, S. epidermidis or E. coli, and N. incerta, respectively. The triclosan concentration range evaluated was from 0.2 μg/mL to 25 μg/mL.

The subject of the next test is C. lytica. The description is as above. The class given is cell-based. As to conditions: Cellulophaga lytica; marine broth; range 0.2 to 25 μg/mL; complete growth inhibition. The protocol: as §1

The MIC is the lowest concentration found to suppress growth. Read a low MIC as greater potency. On to `Oc1cc(Cl)ccc1Oc1ccc(Cl)cc1Cl` [Triclosan, 5-chloro-2-(2,4-dichlorophenoxy)phenol], for which the MIC was ≤ 0.2 µg/mL against S. epidermidis and 12.5 µg/mL (≈ 43.2 µM) against C. lytica.
